Results taken from US8889425B2 (Bayerische Julius-Maximilians-Universität Würzburg, priority 2003, dated 2014).

Assays:
[1] = system: adenosine A2B receptor (CHO cells; single binding domain EPAC2 sensors); assay: single cell FRET, CHO cells expressing adenosine A2B receptor, EPAC2 sensors; type: cell-based; conditions: 24 hours after transfection, single living cells
Protocol: Transfected cells were analyzed 24 h later.

[2] = system: endogenous beta2-adrenergic receptors (HEK293 cells; murine HCN2 (A467-K638) sensor); conditions: 10 μM isoproterenol
Protocol: FIG. 12. […] B. FRET measurements in living HEK293 cells stimulated with 10 μM isoproterenol via endogenous beta2-adrenergic receptors. Cells were transfected with HCN2-based (A467-K638) sensor.
Samples were excited with a light from Polychrom IV (Till Photonics). […] The imaging data were analyzed by MetaMorph 5.0r6 software (Universal Imaging Corp.) and corrected for spillover of CFP into 535 nm channel, as well as for acceptor photobleaching to give a corrected ratio F535 nm/F480 nm.

adenylyl cyclase = assay: FRET signal with direct activators of adenylyl cyclase in cells; type: cell-based

Structure (SMILES): Nc1ncnc2c1ncn2[C@@H]1O[C@H](CO)[C@@H](O)[C@H]1O [adenosine]
- FRET between YFP and CFP upon adenosine [1]: decrease of FRET

Structure (SMILES): CC(C)NCC(O)c1ccc(O)c(O)c1 (stereo not drawn) [isoproterenol]
- cAMP-dependent FRET change upon isoproterenol [2]: decrease in FRET

Structure (SMILES): C=C[C@@]1(C)CC(=O)[C@]2(O)[C@@]3(C)[C@@H](O)CCC(C)(C)[C@@H]3[C@H](O)[C@H](OC(C)=O)[C@@]2(C)O1 [forskolin]
- FRET-signal (adenylyl cyclase): detectable FRET-signal
